Test results: PMC9737391, “Trifluoromethylcinnamanilide Michael Acceptors for Treatment of Resistant Bacterial Infections” (International Journal of Molecular Sciences, 2022)
pIC50: −log10 of the molar value. Converted amounts (≈) assume the structure as drawn.

Assays:
[1] = Lipophilicity determination by RP-HPLC; type: physicochemical; conditions: for log k: RP-HPLC, logarithm of capacity factor k
Method: It is evident from the graphs in Figure 1 that the correlation coefficients of the dependences of log k/log D6.5/log D7.4 have a value of r = 0.999 (n = 32), which means that the investigated compounds behave insignificantly differently in aqueous media with different pH. Moreover, lipophilicity was calculated as log P and Clog P using two prediction programs. […] Therefore, only log P values predicted by ACD/Percepta can be used for correlations with experimental values. These matches are shown in the graphs in Figure 2, and according to the correlation coefficient r~0.940 (n = 32), it can be argued that even the predicted lipophilicity values correlate with the experimentally measured ones. However, the largest variations were observed (no difference for series 1, 2) for compounds substituted with 2-Cl, 2-CF3, 2,5-Cl, 4-F, 4-CF3, and 3,5-F, 3,5-Cl. These are mainly substituents capable of forming hydrogen and other types of non-bonding interactions both with the surrounding environment and within the molecule. Overall, series 1 (3-CF3) is less lipophilic than series 2 (4-CF3), but the differences in the experimental data are insignificant. Unsubstituted derivatives 1a/2a are the least lipophilic compounds, while derivatives 1o/2o (3,5-Cl) and 1p/2p (3,5-CF3) are the most lipophilic compounds.
Experimental determination of lipophilicity values (log k, log D6.5, and log D7.4) was performed under the same conditions and on the same device as described by Strharsky et al..

[2] = test system: Staphylococcus aureus ATCC 29213; test: MIC, microtitration broth method; type: cell-based; conditions: ATCC29213, S. aureus ATCC 29213
[3] = test system: methicillin-resistant S. aureus SA 3202 (MRSA1); test: MIC, microtitration broth method; type: cell-based; conditions: Staphylococcus aureus; MRSA SA 3202
[4] = test system: methicillin-resistant S. aureus SA 630 (MRSA2); test: MIC, microtitration broth method; type: cell-based; conditions: Staphylococcus aureus; MRSA SA 630
[5] = test system: methicillin-resistant S. aureus 63718 (MRSA3); test: MIC, microtitration broth method; type: cell-based; conditions: Staphylococcus aureus; MRSA 63718
[6] = test system: M. smegmatis ATCC 700084; test: In vitro antimycobacterial evaluation (MIC); type: cell-based, Mycobacterium smegmatis; conditions: Mycolicibacterium smegmatis, ATCC700084
[7] = test system: Staphylococcus aureus ATCC 29213; test: MBC, agar aliquot subculture method; type: cell-based; conditions: ATCC29213, S. aureus ATCC 29213
[8] = test system: methicillin-resistant S. aureus SA 3202 (MRSA1); test: MBC, agar aliquot subculture method; type: cell-based; conditions: Staphylococcus aureus; MRSA SA 3202
[9] = test system: methicillin-resistant S. aureus SA 630 (MRSA2); test: MBC, agar aliquot subculture method; type: cell-based; conditions: Staphylococcus aureus; MRSA SA 630
[10] = test system: methicillin-resistant S. aureus 63718 (MRSA3); test: MBC, agar aliquot subculture method; type: cell-based; conditions: Staphylococcus aureus; MRSA 63718
[11] = test system: human monocytic leukemia cell line THP-1; test: In vitro cell viability (cytotoxicity screening); type: cell-based; conditions: 24 h, medium with 10% FBS, ± SD, n = 6
Method: The investigated anilides can be divided into three groups. […] Higher concentrations (than 10 or 30 µM) were not possible to evaluate due to precipitation of the tested compounds in water medium. Based on all these observations, it can be concluded that the high antimicrobial activity of 3,5-CF3-substituted compounds is associated with significant cytotoxic effect against eukaryotic cells. On the other hand, the other still effective compounds, especially agents 1j and 1o, have an insignificant toxic effect, which makes them interesting for further study.
Human monocytic leukemia THP-1 cells obtained from the European Collection of Cell Cultures (ECACC, Salisbury, UK) were used for in vitro antiproliferative assays. A recently described procedure was used.

[12] = test system: S. aureus ATCC 29213; test: MTT assay, inhibition of bacterial respiration; type: cell-based, Staphylococcus aureus
From the text: The MTT assay can be used to assess cell growth by measuring respiration. Respiratory activity of bacterial cells (which is finally reflected in their viability) less than 70% after exposure to the MIC values for each tested compound is considered as a positive result of this assay. This low level of cell oxidative metabolism indicates inhibition of cell growth by inhibition of respiration. The lowest multiples of MIC values that achieved more than 70% inhibition of S. aureus ATCC 29213 viability (%) are shown in Table 3.
The percent inhibition of respiration of S. aureus ATCC 29213 was determined through the MTT assay. The assay was performed as described recently. The percent viability is calculated through the comparison of a measured value and that of the uninhibited control: % viability = OD570E/OD570P × 100, where OD570E is the reading from the compound-exposed cells, while OD570P is the reading from the uninhibited cells (positive control). Cytotoxic potential is determined by a percent viability of <70% [46, 47].

| Molecule | log k [1] | melting point | also measured |
| --- | --- | --- | --- |
| (2E)-N-Phenyl-3-[3-(trifluoromethyl)phenyl]prop-2-enamide [2a] | 0.5351 | – | log D6.5 ([1]; pH 6.5): 0.4751; log D7.4 ([1]; pH 7.4): 0.4684 |
| O=C(/C=C/c1ccc(C(F)(F)F)cc1)Nc1cc(Cl)ccc1Cl [2n, (2E)-N-(2,5-Dichlorophenyl)-3-[4-(trifluoromethyl)phenyl]prop-2-enamide] | 0.9583 | 180 to 182 °C | – |
| O=C(/C=C/c1ccc(C(F)(F)F)cc1)Nc1cccc(F)c1 [2c, (2E)-N-(3-Fluorophenyl)-3-[4-(trifluoromethyl)phenyl]prop-2-enamide] | 0.6462 | 146 to 148 °C | – |
| O=C(/C=C/c1cccc(C(F)(F)F)c1)Nc1ccc(Cl)cc1Cl [1m, (2E)-N-(2,4-Dichlorophenyl)-3-[3-(trifluoromethyl)phenyl]prop-2-enamide] | 0.9782 | 134 to 136 °C | – |
| O=C(/C=C/c1cccc(C(F)(F)F)c1)Nc1ccccc1 [1a, (2E)-N-Phenyl-3-[3-(trifluoromethyl)phenyl]prop-2-enamide] | 0.5234 | – | – |
| O=C(/C=C/c1cccc(C(F)(F)F)c1)Nc1ccccc1C(F)(F)F [1h, (2E)-N-[2-(Trifluoromethyl)phenyl]-3-[3-(trifluoromethyl)phenyl]prop-2-enamide] | 0.5710 | 111 to 113 °C | – |
| O=C(/C=C/c1cccc(C(F)(F)F)c1)Nc1cccc(F)c1 [1c, (2E)-N-(3-Fluorophenyl)-3-[3-(trifluoromethyl)phenyl]prop-2-enamide] | 0.6333 | 113 to 115 °C | MIC [2]: 12.9 µM (≈ 3.99 µg/mL); MIC [3]: 25.9 µM (≈ 8.01 µg/mL); MIC [4]: 12.9 µM (≈ 3.99 µg/mL); MIC [5]: 12.9 µM (≈ 3.99 µg/mL); MIC [6]: 51.7 µM (≈ 16 µg/mL); MBC [7]: 25.9 µM (≈ 8.01 µg/mL); MBC [8]: 25.9 µM (≈ 8.01 µg/mL); MBC [9]: 12.9 µM (≈ 3.99 µg/mL); MBC [10]: 12.9 µM (≈ 3.99 µg/mL); pIC50 [11]: < 4.52; Conc.: lowest multiple of MIC with at least 70% inhibition of respiratory activity [12]: 2 × MIC; Conc.: the same concentration as multiple of MBC [12]: 1 × MBC |
| O=C(/C=C/c1cccc(C(F)(F)F)c1)Nc1cccc(C(F)(F)F)c1 [1i, (2E)-N,3-bis[3-(Trifluoromethyl)phenyl]prop-2-enamide] | 0.8807 | – | MIC [2]: 11.1 µM (≈ 3.99 µg/mL); MIC [3]: 11.1 µM (≈ 3.99 µg/mL); MIC [4]: 2.78 µM (≈ 0.999 µg/mL); MIC [5]: 2.78 µM (≈ 0.999 µg/mL); MIC [6]: 11.1 µM (≈ 3.99 µg/mL); MBC [7]: 22.3 µM (≈ 8.01 µg/mL); MBC [8]: 11.1 µM (≈ 3.99 µg/mL); MBC [9]: 2.78 µM (≈ 0.999 µg/mL); MBC [10]: 22.3 µM (≈ 8.01 µg/mL); pIC50 [11]: < 5.00; Conc.: lowest multiple of MIC with at least 70% inhibition of respiratory activity [12]: 1 × MIC; Conc.: the same concentration as multiple of MBC [12]: 0.5 × MBC |
| O=C(/C=C/c1cccc(C(F)(F)F)c1)Nc1ccc(F)cc1F [1k, (2E)-N-(2,4-Difluorophenyl)-3-[3-(trifluoromethyl)phenyl]prop-2-enamide] | 0.5906 | 143 to 145 °C | – |
| O=C(/C=C/c1cccc(C(F)(F)F)c1)Nc1ccccc1F [1b, (2E)-N-(2-Fluorophenyl)-3-[3-(trifluoromethyl)phenyl]prop-2-enamide] | 0.5375 | 115 to 117 °C | – |
| O=C(/C=C/c1cccc(C(F)(F)F)c1)Nc1cc(Cl)ccc1Cl [1n, (2E)-N-(2,5-Dichlorophenyl)-3-[3-(trifluoromethyl)phenyl]prop-2-enamide] | 0.9612 | 145 to 147 °C | – |
| O=C(/C=C/c1ccc(C(F)(F)F)cc1)Nc1cc(F)cc(F)c1 [2l, (2E)-N-(3,5-Difluorophenyl)-3-[4-(trifluoromethyl)phenyl]prop-2-enamide] | 0.8253 | 188 to 190 °C | – |
| O=C(/C=C/c1ccc(C(F)(F)F)cc1)Nc1ccccc1C(F)(F)F [2h, (2E)-N-[2-(Trifluoromethyl)phenyl]-3-[4-(trifluoromethyl)phenyl]prop-2-enamide] | 0.5798 | 189 to 191 °C | – |
| O=C(/C=C/c1ccc(C(F)(F)F)cc1)Nc1ccc(C(F)(F)F)cc1 [2j, (2E)-N,3-bis[4-(Trifluoromethyl)phenyl]prop-2-enamide] | 0.9319 | 192 to 194 °C | – |
| O=C(/C=C/c1ccc(C(F)(F)F)cc1)Nc1ccc(Cl)cc1 [2g, (2E)-N-(4-Chlorophenyl)-3-[4-(trifluoromethyl)phenyl]prop-2-enamide] | 0.8054 | 185 to 187 °C | – |
| O=C(/C=C/c1cccc(C(F)(F)F)c1)Nc1ccccc1Cl [1e, (2E)-N-(2-Chlorophenyl)-3-[3-(trifluoromethyl)phenyl]prop-2-enamide] | 0.6568 | 118 to 120 °C | – |
| O=C(/C=C/c1ccc(C(F)(F)F)cc1)Nc1cc(Cl)cc(Cl)c1 [2o, (2E)-N-(3,5-Dichlorophenyl)-3-[4-(trifluoromethyl)phenyl]prop-2-enamide] | 1.2024 | 177 to 179 °C | – |
| O=C(/C=C/c1ccc(C(F)(F)F)cc1)Nc1ccc(Cl)cc1Cl [2m, (2E)-N-(2,4-Dichlorophenyl)-3-[4-(trifluoromethyl)phenyl]prop-2-enamide] | 0.9735 | 188 to 190 °C | – |
| O=C(/C=C/c1cccc(C(F)(F)F)c1)Nc1ccc(F)cc1 [1d, (2E)-N-(4-Fluorophenyl)-3-[3-(trifluoromethyl)phenyl]prop-2-enamide] | 0.5760 | – | – |
| O=C(/C=C/c1cccc(C(F)(F)F)c1)Nc1cc(F)cc(F)c1 [1l, (2E)-N-(3,5-Difluorophenyl)-3-[3-(trifluoromethyl)phenyl]prop-2-enamide] | 0.8186 | 131 to 133 °C | – |
| O=C(/C=C/c1ccc(C(F)(F)F)cc1)Nc1ccccc1F [2b, (2E)-N-(2-Fluorophenyl)-3-[4-(trifluoromethyl)phenyl]prop-2-enamide] | 0.5515 | 164 to 166 °C | – |
| O=C(/C=C/c1ccc(C(F)(F)F)cc1)Nc1ccc(F)cc1 [2d, (2E)-N-(4-Fluorophenyl)-3-[4-(trifluoromethyl)phenyl]prop-2-enamide] | 0.5887 | 149 to 151 °C | – |
| O=C(/C=C/c1ccc(C(F)(F)F)cc1)Nc1ccccc1Cl [2e, (2E)-N-(2-Chlorophenyl)-3-[4-(trifluoromethyl)phenyl]prop-2-enamide] | 0.6614 | 171 to 173 °C | – |
| O=C(/C=C/c1ccc(C(F)(F)F)cc1)Nc1cccc(Cl)c1 [2f, (2E)-N-(3-Chlorophenyl)-3-[4-(trifluoromethyl)phenyl]prop-2-enamide] | 0.8095 | 150 to 152 °C | – |
| O=C(/C=C/c1ccc(C(F)(F)F)cc1)Nc1ccc(F)cc1F [2k, (2E)-N-(2,4-Difluorophenyl)-3-[4-(trifluoromethyl)phenyl]prop-2-enamide] | 0.6011 | 141 to 143 °C | – |
